Measurements reported in PMC7425875, “Identification of peptides interfering with the LRRK2/PP1 interaction” (PLoS ONE, 2020).
No end group written: not given here.

Tests used:
[1] = Analysis of peptide integrity in human serum (MALDI-TOF MS); assay type: in vitro ADME; conditions: 37°C, different periods of time, mass spectrometry
Experimental: Peptides were incubated at 37°C in 250 μl of human serum (Sigma Aldrich) for different periods of time. Samples were collected and peptide degradation stopped by freezing. Peptides were extracted from samples using the Proteo Miner Protein Enrichment System (Bio-Rad). Percentage of intact peptide was estimated by mass spectrometry (MS) using MALDI-TOFF as described previously[19] (Bruker Autoflex II) following their protocol. Measurements were performed in triplicate. MS data were analysed using the software Cliprot tools, Felx analysis, Bruker.

[2] = biological target: T1, LRRK2/PP1 interaction (Homo sapiens, UniProt P62136); assay: In vitro competition of LRRK2/PP1 interaction in anti-PP1 immunoprecipitates (western blot); assay type: binding; conditions: 1 mM peptide, 30 min room temperature, MDA-MB231 lysates
T1 construct: MDA-MB231 cells were lysed and cytoplasmic extracts immunoprecipitated with anti-PP1 antibody (Santa Cruz); endogenous in cells; host or cells: MDA-MB231
Experimental: The protocol was previously described. Briefly, cells (5x10^6) were lysed for 20 min at 4°C in lysis buffer (50 mM Tris pH8, 1% NP40, 137 mM NaCl, 1 mM MgCl2, 1 mM CaCl2, 10% glycerol and protease inhibitor mixture Sigma Aldrich). Lysates (500 μg) were immunoprecipitated with the appropriated antibody overnight at 4°C and protein A/G Sepharose (Santa Cruz) was added for 1h at 4°C. After washing with 1x TBST (20 mM Tris-HCl pH7.5, 150 mM NaCl, 0.05% Tween 20), the PP1/LRRK2 interaction was competed using 1 mM of the Mut3DPT-LRRK2-Long or Mut3DPT-LRRK2-Shor peptide for 30 min at room temperature. After several washing steps, immunoprecipitates were separated by SDS-PAGE, transferred to nitrocellulose and blotted with anti PP1 antibody (Santa Cruz or Thermo Fisher 1:500 dilution). The membrane was washed and incubated with PO-conjugates secondary antibody (Dako, 1:1000 dilution). Protein detection was performed using the ECL system (Bio-Rad). As internal control, the blot was also hybridized with anti-LRRK2 antibody (Abcam, ab133474, 1;500 dilution). Western blots were densitometred using Image J. Statistic analysis were done using Anova.

T1 sequence (P62136 whole entry): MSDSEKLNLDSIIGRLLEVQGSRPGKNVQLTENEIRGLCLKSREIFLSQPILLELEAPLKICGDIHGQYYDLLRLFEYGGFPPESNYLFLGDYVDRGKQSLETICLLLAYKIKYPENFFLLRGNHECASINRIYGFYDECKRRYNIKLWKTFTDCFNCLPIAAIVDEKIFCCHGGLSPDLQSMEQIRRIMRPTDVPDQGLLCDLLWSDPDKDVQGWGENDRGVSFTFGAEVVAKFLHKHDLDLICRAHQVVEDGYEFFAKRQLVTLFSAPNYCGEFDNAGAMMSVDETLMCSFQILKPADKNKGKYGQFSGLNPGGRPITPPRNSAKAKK

Row | Resistance to degradation by proteases in human serum [1] | Competition of LRRK2/PP1 interaction (LRRK2 detected in anti-PP1 immunoprecipitates) [2] | Sequence
1 | only very limited degradation | – | THRPPMWSPVWPGFWSRLINRLLEI [BBB-LRRK2-Short]
2 | only very limited degradation | – | THRPPMWSPVWPPMGFWSRLINRLLEISPY [BBB-LRRK2-Long]
3 | – | LRRK2 was detected | VKKKKIKAEIKI [Mut3DPT, Optimized cell penetrating peptide (shuttle alone), derived from DPT-Sh1]
